The source of these data is patent US20070053941A1, “Vermin repellent” (priority 2003, published 2007).

Test [1] deals with moles. Briefly: Field test: IMP vials buried in mole tunnels at a summer residence lawn (Example 1). The test is classed as in vivo, Talpa europaea. As to the method:
Locality: A summer residence in Ängelholm in the south of Sweden.
Active substance: 100 μl 20% IMP in hexane in a sealed glass vial which was crushed at application in a mole tunnel.

Test [2] concerns moles. The test can be described thus: Garden test: fenced-in 100 square meter zone treated with IMP versus untreated control area (Example 2). The class given is in vivo, Talpa europaea. From the text: In a garden with an area of 700 square meters with notable mole activity, a zone with an area of 100 square meters was fenced in and treated with IMP under very favourable conditions.

Turning to `COc1nccnc1C(C)C` [IMP, 2-isopropyl-3-methoxy-pyrazine], in the test on moles [1] (Example 1, overall conclusion), the “Repelling effect on moles (comment on the observations)” value is recorded as “has a repelling effect on moles”. In addition, in the test on moles [1] (January 2003, migration back after treatment in June), the “Observed effect: mole hills” value is listed as “about 10 mole hills”. Further, in the test on moles [1] (June 15, after 2 vials buried June 11 and 3 vials June 14 (100 μl 20% IMP in hexane each), about 20 mole hills at beginning of June), the “Observed effect: new mole hills in direction from the vials” value is 4 new mole hills in direction. In addition, the “Observed effect: new mole hills” value in the test with moles [1] (June 19, after 5 vials buried) came out at 2 new mole hills. Also, in the test on moles [2] (Example 2, overall conclusion), the “Behaviour of moles in the treated area” value was “decidedly disturbed”. For the same compound, in the test with moles [2] (after 4 days, 10 from the start, untreated control area 10 as compared with 6 from the start), the “Mole hills observed in the treated area” value is on record as 21 mole hills.
